Source: patent US20140364483A1, “ALTERNATIVE SPLICING VARIANTS OF GENES ASSOCIATED WITH PROSTATE CANCER RISK AND SURVIVAL” (The George Washington University, priority 2011, published 2014)
d = 2'-deoxy (DNA); r = 2'-OH (RNA); {P} = phosphate

Tests used:
Type in all cases: cell-based, human
[1] = tested on: MDA PCa 2b cells; assay: Matrigel invasion after siRNA knockdown of splice variants; details: AA PCa cell line MDA PCa 2b
Excerpt: (§1) The predominant expression of the L variant and very little to no expression of the S variant in the CA PCa cell line is consistent with the CA patient samples (see PIK3CD in FIG. 4). SiRNA-mediated knockdown of the L variant in VCaP cells leads to a decrease in Matrigel invasion and a decrease in proliferation (FIG. 7A). By comparison, the AA PCa cell line MDA PCa 2b expresses both an L and S variant, and knockdown of the L variant leads to an increase in Matrigel invasion and an increase in proliferation (FIG. 7A). Since VCaP cells express very little to no S variant, targeted siRNA-mediated knockdown of this variant leads to no change in Matrigel invasion and proliferation (FIG. 7B). In contrast, targeted knockdown of the S variant in MDA PCa 2b cells leads to decreased Matrigel invasion and decreased proliferation (since the S variant is found almost exclusively in AA patient samples, it is referred to as the ‘AA variant’) (FIG. 7B). […] Analogous findings were obtained in MDA PCa 2b cells when the ratio of the ‘AA variant’ (S or b isoform) was increased over the ‘CA variant’ (L or an isoform) for the FGFR3, TSC2.
(§2) For RASGRP2, the long variant (with exon 10) is common to both AA and CA patients, whereas the short variant (without exon 10) is unique to AA. Targeted knockdown of the long splicing variant in VCaP cells reduced Matrigel invasion and an increase in proliferation (FIG. 8).

[2] = tested on: VCaP cells; assay: as above; details: CA PCa cell line VCaP
Excerpt: as §1, §2

[3] = tested on: MDA PCa 2b cells; assay: Cell proliferation after siRNA knockdown of splice variants; details: AA PCa cell line MDA PCa 2b
Excerpt: as §1, §2

[4] = tested on: VCaP cells; assay: as above; details: CA PCa cell line VCaP
Excerpt: as §1, §2

[5] = tested on: AKT pathway; assay: AKT pathway phosphorylation after knockdown of PIK3CD long variant
Excerpt: Activation of AKT is known to promote cell growth and mRNA translation (FIG. 9a). When the expression of PIK3CD “long” variant is knocked down by siRNA targeting of Exon 23 in the VCaP cell line, which only expresses the long variant, there is a decrease of phosphorylation of AKT, compared to nonsense siRNA control, and also decrease of phosphorylation of downstream signaling proteins mTOR and S6 (FIG. 9b). […] In other words, increasing S/L variants proportion in MDA PCa 2b cells activates the AKT pathways.

[6] = VCaP cell line, compared to nonsense siRNA control

siPIK3CD-S: siRNA duplex SEQ ID Nos. 12 and 13, sense 5′ UGAGGGAGGCCCUGGAUCGAdTdT 3′; knocks down PIK3CD short variant (antisense UCGAUCCAGGGCCUCCCUCA; sense: RNA, 3' dTdT, backbone not given here; antisense: RNA, 5' {P}, 3' dTdT, backbone not given here)
Matrigel invasion [1]: decreased
Matrigel invasion [2]: no change
proliferation [3]: decreased
proliferation [4]: no change

siPIK3CD-ex23: siRNA duplex SEQ ID Nos. 4 and 5, sense 5′ CCAACAUCCAACUCAACAAdTdT 3′; knocks down PIK3CD long variant (antisense UUGUUGAGUUGGAUGUUGG; sense: RNA, 3' dTdT, backbone not given here; antisense: RNA, 5' {P}, 3' dTdT, backbone not given here)
Matrigel invasion [1]: increase
Matrigel invasion [2]: decrease
AKT phosphorylation, both on Thr308 and Ser473 ([5]; MDA PCa 2b cells): markedly increases
phosphorylation of mTOR and S6 ([5]; MDA PCa 2b cells): increases
phosphorylation of AKT [5, 6]: decrease
phosphorylation of downstream signaling proteins mTOR and S6 [5, 6]: decrease
proliferation [3]: increase
proliferation [4]: decrease

siRNA targeting RASGRP2 exon 10: siRNA duplex SEQ ID Nos. 40 and 41, sense 5′ GUGGAGCACAUCGAGAAGAdTdT 3′; long variant contains exon 10 (sense GUGGAGCACAUCGAGAAGATT; antisense UCUUCUCGAUGUGCUCCAC; sense: sugars from the 5' end r19 d2, backbone not given here; antisense: chemistry not given here)
Matrigel invasion [1]: opposite effect
Matrigel invasion [2]: reduced
proliferation [3]: opposite effect
proliferation [4]: increase
